The results in this text go back to US10711246B2, “Methods and compositions for generating epicardium cells” (UNIVERSITY HEALTH NETWORK, priority 2013, dated 2020).

Common to all, as to format: cell-based, human
The subject of test [1] is WT1+ epicardial cells. Nature of the test: ALDH1A2 expression (qRT-PCR) and Aldefluor staining (flow cytometry) after EMT induction. As to conditions: cultures in which EMT had been induced, versus non-treated passaged epicardial cells. The source says: FIG. 17. WT1^+ epicardial cells upregulate ALDH1A2 expression and display aldehyde dehydrogenase activity following passage. (a) qRT-PCR-based expression analyses of ALDH1A1, ALDH1A2 and ALDH1A3 in D15 WT^+ epicardial cultures and Day 15+8 post-passage non-treated epicardial cultures. Values are relative to the housekeeping gene TBP. Error bars represent standard deviation from the mean of the values from three independent experiments (N=3); *P≤0.05, **P≤0.01 compared to ALDH1A2 expression levels. (b) qRT-PCR-based expression analyses of ALDH1A2 on days 2, 4, 6 and 8 following the initiation of EMT. Values are expressed as fold change to experiment-matched pre-passaged day 15 WT1^+ epicardial cultures. Error bars represent standard deviation from the mean of the values from three independent experiments (N=3); *P≤0.05, **P≤0.01 compared to no treatment control cultures. (c) Flow cytometric analyses of Aldefluor on day 15 populations generated from cells treated from days 4 to 6 with DM (non-cardiac, non-epicardial), BMP4+XAV (cardiomyocytes) or BMP4+CHIR (WT1^+ epicardial cells). (d) Flow cytometry analyses of Aldefluor on WT1^+ epicardium-derived cultures 8 days following the initiation of EMT with the indicated treatments. […]
(In general: Real-time PCR tracks product formation cycle by cycle.)

Test [2] concerns hESC-derived WT1+ epicardial cells. The experiment in a line: EMT induction in passaged day 15 WT1+ epicardial cells; qRT-PCR, flow cytometry, immunostaining. As to conditions: for WT1 expression over time after EMT initiation: qRT-PCR, eight-day culture. The protocol:
FIG. 11. WT1^+ epicardial cells undergo EMT in response to TGFβ1 and bFGF treatment. (a) Scheme of the protocol used for EMT induction. Day 15 WT1+ cultures are passaged, allowed to settle for 1 day and then treated with TGFβ1 (5 ng/ml) for 4 days followed by no treatment (TGFβ), sequential treatment with […] (5 ng/ml) for 4 days followed by bFGF (10 ng/ml) for 4 days (TGFβ+bFGF), or bFGF (10 ng/ml) treatment for 8 days (bFGF). No treatment of the cultures serves as a control. (b) Flow cytometric analyses of cultures 8 days following the initiation of EMT for the cell surface mesenchymal marker CD90. Gray filled histogram indicates control culture fluorescence intensity. (c) qRT-PCR-based expression of the epicardial gene WT1 and the EMT-induced genes SNAI1 and SNAI2 on days 2, 4, 6 and 8 after EMT initiation. Values are expressed as fold change to experiment-matched pre-passaged day 15 WT1+ cultures. Error bars represent standard deviation from the mean of the values from three independent experiments (N=3); *P≤0.05, **P≤0.01 compared to no treatment control.
FIG. 12. WT1 and ZO1 expression is lost in response to EMT. Phase contrast and fluorescent immunostaining showing cell morphology and the expression of ZO1 and WT1 proteins in epicardial cultures 8 days after EMT initiation with the indicated factors.
FIG. 13. EPDCs display characteristic expression of fibroblasts and vascular smooth muscle cell markers by fluorescent immunostaining. Fluorescent immunostaining showing α-Smooth muscle actin (SMA) and Vimentin (VIM) protein in cultures 8 days after EMT initiation with the indicated factors.
FIG. 14. EPDCs display characteristic expression of fibroblasts and vascular smooth muscle cell markers by qRT-PCR. qRT-PCR-based expression analyses of the smooth muscle genes […], MYH11, TAGLN and SMTN and the epicardial/cardiac fibroblast gene TCF21 in the indicated cultures 8 days after EMT initiation. Values are expressed as fold change to experiment-matched pre-passaged day 15 WT1^+ epicardium cultures. Error bars represent standard deviation from the mean of the values from three independent experiments (N=3); *P≤0.05, **P≤0.01 compared to no treatment control cultures.
To determine if the hESC-derived WT1^+ epicardial-like cells can undergo EMT, an assay was designed in which D15 epicardial cells are passaged, allowed one day to recover, and then treated for a total of eight days with one of four treatment regimens. The regimens consisted of: 1) TGFβ-1 for four days followed by four days with no additional factor (TGFβ), 2) TGFβ-1 for four days followed by four days with bFGF (TGFβ+bFGF), 3) bFGF for eight days (bFGF) or 4) no additional factors for eight days (FIG. 11a). Following culture under the different conditions, the cells were harvested and analyzed by qRT-PCR and flow cytometry.

Test [3] deals with hPSC-derived Epi cells. The experiment in a line: Matrigel invasion assay eight days after EMT induction, confocal microscopy and 3D reconstruction. As to conditions: eight days following induction of EMT. The source says: (a) Representative fields of view in the XY plane (top view) and 3D reconstruction (side view) of the matrigel invasion assay on D8 after EMT induction.
(b) Maximum matrigel invasion depth on D8 following EMT initiation. Bars represent standard error of the mean of the values from three independent experiments (N=3); **P≤0.01 compared to non-treated controls as analyzed by Student's T-test.
It is well established that during heart development EPDCs, and in particular cardiac fibroblasts, invade the myocardial layer^33. To assess this potential of the hPSC-derived Epi cells, their ability to invade a 3D layer of Matrigel following induction of EMT with the different factors was measured. To enable us to easily track the migration of the cells, the Epi population was generated from GFP expressing hESCs^48. Matrigel invasion was monitored eight days following the induction of EMT by confocal microscopy and evaluated using 3D image reconstruction (FIG. 16a). […] Along with invasion, bFGF treatment also led to an increase in total cell number within the regions of interest (ROI). […] To further quantify the degree of invasion, the proportion of cells in each population that migrated to different depths was calculated. Virtually all of the cells in the non-induced, the TGFβ-induced and TGFβ+bFGF-induced populations were detected within the first 200 μm of the gel. In contrast, approximately half of the cells in the bFGF-induced population migrated beyond this depth, some as far as 600 μm.

Test [4] relates to hESC epicardial-derived smooth muscle-like cells. Nature of the test: Calcium transients of EMT-induced cells after norepinephrine (NE) and phenylephrine (PE) stimulation. The protocol:
(a) The total proportion of actively cycling cells in EMT-induced cultures was measured for the indicated treatments. Treatment with TGFβ+bFGF generated populations with the largest proportion of actively cycling cells in response to agonists. Bars represent standard error of the mean; N=3/group; *P<0.05, **P<0.01 compared by one-way ANOVA with Tukey post hoc test. (b) The frequency of calcium cycles in actively cycling cells in the conditions as indicated at baseline and after NE and PE addition. Stacked bars represent the contribution to frequency of calcium cycling during baseline recording (hatched lines), and after NE (white) or PE (black) treatment. (c) The amplitude of calcium transients after NE and PE addition in the EMT induced cultures. No Treatment NE N=6 cells, PE N=4 cells; TGFβ NE N=6 cells, PE N=12 cells; TGFβ+bFGF NE N=13 cells, PE N=25 cells. *P<0.05 compared by one-way ANOVA with Tukey post hoc test. (d) The duration of calcium transients after NE and PE addition in the EMT induced cultures. […]
To test the contractile function of the smooth muscle-like cells generated following the EMT induced with TGFβ and TGFβ+bFGF, calcium transients were measured following stimulation with norepinephrine (NE) and phenylephrine (PE) using previously described methods^32. […]

[5] abbreviates: qRT-PCR 8 days after EMT initiation.

bFGF: the “ALDH1A2 expression and Aldefluor staining” value in test [1] was “dramatically lower levels”. Besides, the “ZO1 (and WT1) expression by immunostaining” value in test [2] (8 days after EMT initiation) is listed as “internalized or lost”. Also, in test [2] (setting [5]), the MYH11 expression entry is given as “did not express MYH11”; the “expression of smooth muscle genes CNN1, MYH11, TAGLN, SMTN and fibroblast marker TCF21” value is “expressed TCF21 in addition to CNN1, TAGLN and SMTN”. In test [2] (qRT-PCR after EMT initiation), the SNAI1 expression entry is “induced the expression of SNAI1” and the SNAI2 expression result is given as “increases in SNAI2 expression”. Further, the “WT1 expression over time after EMT initiation” value in test [2] is listed as “did not decline below those of the control”. Moreover, in test [3], the “Matrigel invasion (migratory behaviour, depth)” value was “most migratory and invaded the matrigel to the greatest depth”; the “proportion of cells that migrated beyond 200 μm” value is listed as “approximately half”; the “total cell number within the regions of interest” value is 379.7±40.5 cells per ROI. Moreover, the “farthest depth of migration” value in test [3] (some cells) is at most 600 μm.

Turning to TGFβ-1, the “ALDH1A2 expression and Aldefluor staining” value in test [1] was “dramatically lower levels”. Further, in test [2] (8 days after EMT initiation), the “ZO1 (and WT1) expression by immunostaining” value was “internalized or lost”. For the same substance, the “vimentin (VIM) immunostaining” value in test [2] (8 days after EMT initiation, compared with bFGF alone) is recorded as “substantially brighter staining”. Moreover, the “α-smooth muscle actin (SMA) immunostaining” value in test [2] (compared to bFGF or absence of factors) is “higher levels”. In addition, in test [2] (setting [5]), the “expression of smooth muscle genes CNN1, MYH11, TAGLN, SMTN and fibroblast marker TCF21” value was “upregulated expression of CNN1, MYH11, TAGLN and SMTN but not TCF21”. Further, in test [2] (qRT-PCR after EMT initiation), the SNAI2 expression entry was “increases in SNAI2 expression”. In addition, in test [2], the “WT1 expression over time after EMT initiation” value is listed as “steady decreases in WT1 expression”. Moreover, the “amplitude of calcium response” value in test [4] (PE-treated, compared to control cultures) was “greatest”. Moreover, in test [4] (following PE stimulation, cells that exhibited calcium transients), the calcium cycling rates entry is “faster calcium cycling rates than those in the non-induced control cultures”. In test [3], the “Matrigel invasion (migratory behaviour, depth)” value is listed as “little capacity to invade the Matrigel” and the “total cell number within the regions of interest” value came to 56.8±9.5 cells per ROI.
